What was measured:
[1] = target: E3 ubiquitin-protein ligase Mdm2 (Homo sapiens, UniProt Q00987); test: Fluorescence Anisotropy Competition Binding Assay
Description: (§1) Inhibitory activities of NAPAs were measured by fluorescence anisotropy competition experiments. Protein was incubated with fluorescein-labeled human p53 peptide in the presence of test compound. Experiments were performed with a 70-fold molar excess of protein over labeled p53-peptide to ensure that the peptide is completely bound by the protein. […] Fluorescence anisotropy was measured at 25 deg C on a Beacon 2000 (PanVera, Madison, WI). Data points were measured in triplicate. IC50 values were calculated by nonlinear regression curve fitting.

Protein Mdm4 = target: T1, Protein Mdm4 (Homo sapiens, UniProt O15151); test: Fluorescence Anisotropy Competition Binding Assay
T1 sequence (O15151 whole entry): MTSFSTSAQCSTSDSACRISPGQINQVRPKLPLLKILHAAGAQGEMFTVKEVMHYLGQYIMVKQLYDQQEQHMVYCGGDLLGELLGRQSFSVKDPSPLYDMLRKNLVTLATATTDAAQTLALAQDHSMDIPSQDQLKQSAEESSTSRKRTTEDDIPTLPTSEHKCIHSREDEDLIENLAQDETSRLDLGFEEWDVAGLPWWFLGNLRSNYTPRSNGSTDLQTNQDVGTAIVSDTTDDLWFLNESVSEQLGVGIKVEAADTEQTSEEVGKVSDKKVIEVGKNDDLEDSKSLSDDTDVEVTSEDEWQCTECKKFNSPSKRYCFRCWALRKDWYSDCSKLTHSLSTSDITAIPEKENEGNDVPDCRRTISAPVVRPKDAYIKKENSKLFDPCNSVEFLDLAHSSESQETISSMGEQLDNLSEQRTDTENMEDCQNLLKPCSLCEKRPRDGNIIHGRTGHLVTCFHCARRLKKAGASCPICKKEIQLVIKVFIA
Description: as §1

E3 ubiquitin-protein ligase Mdm2, sequence (Q00987 whole entry): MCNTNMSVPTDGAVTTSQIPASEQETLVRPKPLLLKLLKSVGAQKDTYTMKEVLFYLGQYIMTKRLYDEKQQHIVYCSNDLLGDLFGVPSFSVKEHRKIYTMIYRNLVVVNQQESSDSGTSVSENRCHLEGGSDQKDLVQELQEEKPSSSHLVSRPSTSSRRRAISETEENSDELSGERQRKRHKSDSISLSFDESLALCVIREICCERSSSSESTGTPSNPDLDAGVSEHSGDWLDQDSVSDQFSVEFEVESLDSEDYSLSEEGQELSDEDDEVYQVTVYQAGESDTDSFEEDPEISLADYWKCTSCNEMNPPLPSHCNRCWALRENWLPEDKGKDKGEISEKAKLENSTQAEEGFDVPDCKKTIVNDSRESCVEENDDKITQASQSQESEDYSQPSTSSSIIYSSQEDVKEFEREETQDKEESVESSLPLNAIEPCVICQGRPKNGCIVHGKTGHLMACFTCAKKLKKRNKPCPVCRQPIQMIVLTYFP

| IC50 ([1]; pH 7.6, 23 °C) [µM] | IC50 (Protein Mdm4) [µM] | IC50 [1] [µM] | Compound |
| --- | --- | --- | --- |
| 10.5 | 7.6 |  | NCCCCC(CN(C(=O)NCCc1ccc(Br)cc1)C(CCC(=O)O)CN(CCC(N)=O)C(=O)NCCCc1ccc(Br)cc1)N(CC(CCC(=O)O)NC(=O)Nc1ccccc1)C(=O)NCCCC1CCCCC1 (centres undefined) [N-acylpolyamine (NAPA) scaffold, 19] |
|  | > 100 | > 100 | CC(C)CCC(=O)NC(CCC(=O)O)CN(CCCCCC1CCCCC1)C(CCCCN)CN(CCCCc1ccc(Br)cc1)C(CCC(=O)O)CN(CCCCCc1ccc(F)cc1)CCC(N)=O (centres undefined) [N-acylpolyamine (NAPA) scaffold, 36] |

Reference: BindingDB's records for doi:10.1016/j.bmc.2009.10.032 (NIH, 2009)
